Measured values reported in article PMC12679848, “Sulphonamide derivatives with a triazine core as novel inducers of apoptosis and pyroptosis in glioblastoma multiforme cells” (Journal of Enzyme Inhibition and Medicinal Chemistry, 2025).

Experiments:
A172 xenografts = test: Zebrafish xenograft, A172; assay type: in vivo; settings: 10 µM, 48 h, 0.1% DMSO control 4%
Experimental: (§1) In our study, we used wild-type AB zebrafish embryos obtained from the certified Experimental Medicine Centre (Lublin, Poland). Adult zebrafish were raised at 28.5 °C under 14 h of light and 10 h of the dark cycle and fed in accordance with the guidelines established by the Research Animals Department of the RSPCA. Fertilised eggs were obtained by natural spawning; healthy clutches were processed for study or propagated for line maintenance. Embryos were maintained in the E3 medium (5 mM NaCl, 0.33 mM MgCl2, 0.33 mM CaCl2, 0.17 mM KCl; pH 7.2) at 28.5 °C. The use of animals in scientific research in Europe is governed by the Directive 2010/63/EU of 22 September 2010. […] All procedures in this study were performed on embryos up to 5 dpf.
(§2) A172 and U-87MG cell lines were labelled with Vybrant Did (Invitrogen, Waltham, MA, USA) according to the manufacturer’s protocol. Stained cells were re-suspended in Dulbecco’s modified Eagle’s medium (DMEM) at the final concentration of 1 × 10^7 cells/mL. 24 h post-fertilisation (hpf) zebrafish were manually dechorionated. […]
(§3) Xenograft imaging has been performed before (48 hpf) and after (120 hpf) drugs treatment using an EVOS M5000 Imaging System with the filter Cy5 (excitation: 628 nm; emission: 692 nm). […] Tumour sizes were analysed as the area of labelled tumour cells according Ali et al.[18] using EVOS software.

U-87MG xenografts = test: Zebrafish xenograft, U-87 MG; assay type: in vivo; settings: U-87 MG zebrafish xenografts, 10 µM, 48 h; 0.1% DMSO control 22%
Experimental: as §1, §2, §3

| Structure (SMILES) | average tumour size reduction (A172 xenografts) [%] | tumour size reduction (U-87MG xenografts) [%] |
| --- | --- | --- |
| CCC(CO)NS(=O)(=O)c1ccc(-n2nc(C)c3nc4nnnn4nc32)cc1 (stereo in doubt) [MM118, N-(R)-(1-hydroxy-but-2-yl)-4-[7-methyl-5H-pyrazolo[4,3-e]tetrazolo[1,5-b][1]^,[2]^,[4]triazin-5-yl)]benzenesulfonamide] | 55 | 51 |
| CCC(CO)NS(=O)(=O)c1ccc(-n2nc(C)c3nc4nnnn4nc32)cc1 (stereo in doubt) [MM119, N-(S)-(1-hydroxy-but-2-yl)-4-[7-methyl-5H-pyrazolo[4,3-e]tetrazolo[1,5-b][1]^,[2]^,[4]triazin-5-yl)]benzenesulfonamide] | 56 | 56 |
